Data from US12448400B2, “KRAS G12D modulating compounds” (priority 2023, dated 2025).
Like-named read-outs stand apart in the source and are kept apart here.

Legend:
GP2D (KRAS G12D) cells = assay: 2D cell viability assay (CellTiter-Glo); format: cell-based
Outline: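 GP2D (KRAS G12D) cells, 1000/well in RPMI + 10% FBS, were plated onto compound (1:3 DMSO series) and grown 4 days at 37 °C, 5% CO2 in 2D. CellTiter-Glo luminescence was read; EC50 is the concentration giving 50% signal decrease, from sigmoidal fit.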

[1] = Mouse oral cassette pharmacokinetics; format: in vivo, male CD-1 mice
Method: Mouse Oral Cassette Pharmacokinetics
Test compounds (1-3 compounds per cassette) were formulated in solution formulations (10 w/v % Captisol in 50 mM Citrate buffer) and administered orally at 30 mg-eq./kg each compound to a group of four male CD-1 mice. The test articles were administrated by oral gavage at a dose volume of 10 mL-eq/kg.
Blood samples were collected at 0.5, 1, 3, 6, 8, and 24 hours post dose into K2EDTA tubes and stored on wet ice until processed. Whole blood was processed to plasma by centrifugation (3500 rpm for 10 minutes at 5° C.) within 30 minutes of collection. Plasma samples were placed in Micronic 96 well tubes and stored at −80° C. until transferred. Plasma concentration of the test compounds was determined by LC-MS/MS. Pharmacokinetic parameters were estimated using non-compartment model analysis. The maximum observed concentration (Cmax) and area under the curve from time of dosing to last measured concentration (AUClast) were calculated and reported.

GDP-loaded KRAS G12D = GDP-loaded KRAS G12D (Homo sapiens, UniProt P01116, G12D); assay: KRAS G12D (GDP) biochemical assay, TR-FRET probe displacement; format: binding
Method: Example A. KRAS G12D (GDP) Biochemical Assay
Compounds were tested for binding to GDP-loaded KRAS G12D in a 384-well assay format using a TR-FRET probe displacement assay in buffer consisting of 50 mM Hepes (pH 7.4), 150 mM NaCl, 5 mM MgCl2 and 0.005% Tween-20. […] Compounds were serially diluted (1:3) in DMSO. The LabCyte ECHO Acoustic dispenser system was used to pre-spot the assay plates (384-well Non-Binding Surface plates, Corning, Catalog #3824) with 50 nL of compound. The compounds were pre-incubated with 5 μL of 2× final enzyme concentration for 30 minutes before adding 5 μL of 2× final concentration of Eu-streptavidin and TR-FRET probe (10 μL final reaction volume). The plates were incubated at room temperature for 2 hours before measuring TR-FRET ratio on the Envision plate reader. IC50 values were defined as the compound concentration that causes a 50% decrease in TR-FRET ratio and were calculated using a sigmoidal dose-response model to generate curve fits.

[2] = GP2D cells, 4 days, CellTiter-Glo luminescence, read-out: G12D 2D EC50
[3] = oral gavage, 30 mg-eq./kg each compound, cassette, plasma, AUClast of parent
[4] = male, CD-1, mouse, in vivo, po, 30 mg/kg
[5] = 96 h, GP2D cells, 4 days, CellTiter-Glo luminescence, read-out: G12D 2D EC50
[6] = 0.5 nM enzyme, 30 min pre-incubation, 2 h incubation, TR-FRET ratio, read-out: G12D IC50

Sequence of GDP-loaded KRAS G12D (P01116 1-188 isoform P01116-2 G12D): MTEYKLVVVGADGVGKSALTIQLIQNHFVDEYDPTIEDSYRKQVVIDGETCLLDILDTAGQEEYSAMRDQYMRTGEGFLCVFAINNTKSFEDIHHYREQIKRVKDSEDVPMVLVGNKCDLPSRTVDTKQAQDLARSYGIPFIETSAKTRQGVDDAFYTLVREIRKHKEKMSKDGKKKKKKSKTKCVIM

Row | Compound | Mouse Parent AUC [1, 4] | EC50 (GP2D (KRAS G12D) cells; [5]) | IC50 (GDP-loaded KRAS G12D; [6]) | further results
1 | 5-ethynyl-6-fluoro-4-((7R,8S,8aS,9S,12R)-4-fluoro-2-(((2R,7aS)-2-fluorotetrahydro-1H-pyrrolizin-7a(5H)-yl)methoxy)-7,8-dimethyl-14-((5-methyl-2-oxo-1,3-dioxol-4-yl)methyl)-7,8,8a,9,10,11,12,13-octahydro-1,3,6,13a,14-pentaaza-9,12-methanonaphtho[1,8-ab]heptalen-5-yl)naphthalen-2-yl isobutyrate [Example 31] | – | – | – | EC50 (GP2D (KRAS G12D) cells; [2]): 0.2 nM; Mouse Parent AUC [1, 3]: 0.99 µM·h
2 | C#Cc1c(F)ccc2cc(O)cc(-c3nc4c5c(nc(OC[C@@]67CCCN6C[C@H](F)C7)nc5c3F)N3C[C@H]5CC[C@H](N5)[C@@H]3[C@@H](C)C4)c12 [Comp. Ex. 64, 5-ethynyl-6-fluoro-4-((5S,5aS,6S,9R)-1-fluoro-12-(((2R,7aS)-2-fluorotetrahydro-1H-pyrrolizin-7a(5H)-yl)methoxy)-5-methyl-4,5,5a,6,7,8,9,10-octahydro-3,10a,11,13,14-pentaaza-6,9-methanonaphtho[1,8-ab]heptalen-2-yl)naphthalen-2-ol, reference compound] | 0.83 µM·h | – | – | –
3 | C#Cc1c(F)ccc2cc(O)cc(-c3nc4c5c(nc(OC[C@@]67CCCN6C[C@H](F)C7)nc5c3F)N3C[C@H]5CC[C@H](N5)[C@@H]3[C@@H](C)[C@H]4C)c12 [Comp. Ex. 87, reference compound] | 0.9 µM·h | – | – | –
4 | C#Cc1c(F)ccc2cc(O)cc(-c3c(F)c4c5c(nc(OCC67CCCN6CC(F)C7)nc5c3F)N3CC5CCC(C3CCC4)N5Cc3oc(=O)oc3C)c12 [Example 28, 4-(((1S,4R,11R,15aR)-11-(8-ethynyl-7-fluoro-3-hydroxynaphthalen-1-yl)-10,12-difluoro-8-(((2R,7aS)-2-fluorotetrahydro-1H-pyrrolizin-7a(5H)-yl)methoxy)-2,3,4,5,13,14,15,15a-octahydro-1H-1,4-epiminoazepino[1′,2′:1,8]azocino[2,3,4-de]quinazolin-16-yl)methyl)-5-methyl-1,3-dioxol-2-one] | – | – | – | EC50 (GP2D (KRAS G12D) cells; [2]): 0.18 nM; Mouse Parent AUC [1, 3]: 0.7 µM·h
5 | C#Cc1c(F)ccc2cc(O)cc(-c3nc4c5c(nc(OC[C@@]67CCCN6C[C@H](F)C7)nc5c3F)N3C[C@H]5CC[C@@H]([C@@H]3[C@@H](C)[C@H]4C)N5Cc3oc(=O)oc3C)c12 [Example 29, 4-(((7R,8S,8aS,9S,12R)-5-(8-ethynyl-7-fluoro-3-hydroxynaphthalen-1-yl)-4-fluoro-2-(((2R,7aS)-2-fluorotetrahydro-1H-pyrrolizin-7a(5H)-yl)methoxy)-7,8-dimethyl-7,8,8a,9,10,11,12,13-octahydro-1,3,6,13a,14-pentaaza-9,12-methanonaphtho[1,8-ab]heptalen-14-yl)methyl)-5-methyl-1,3-dioxol-2-one] | 0.75 µM·h | 0.13 nM | – | –
6 | C#Cc1c(F)ccc2cc(OC(=O)C(C)C)cc(-c3nc4c5c(nc(OC[C@@]67CCCN6C[C@H](F)C7)nc5c3F)N3C[C@H]5CC[C@@H]([C@H]3CCC4)N5Cc3oc(=O)oc3C)c12 [Example 30, 5-ethynyl-6-fluoro-4-((6aR,7S,10R)-1-fluoro-13-(((2R,7aS)-2-fluorotetrahydro-1H-pyrrolizin-7a(5H)-yl)methoxy)-15-((5-methyl-2-oxo-1,3-dioxol-4-yl)methyl)-5,6,6a,7,8,9,10,11-octahydro-4H-3,11a,12,14,15-pentaaza-7,10-methanocyclohepta[4,5]cycloocta[1,2,3-de]naphthalen-2-yl)naphthalen-2-yl isobutyrate] | 0.66 µM·h | 0.22 nM | – | –
7 | C#Cc1c(F)ccc2cc(O)cc(-c3c(F)c4c5c(nc(OC[C@@]67CCCN6C[C@H](F)C7)nc5c3F)N3C[C@H]5CC[C@H](N5)[C@H]3CC4)c12 [Example 37-P, 4-((1S,4R,11R,14aR)-10,12-difluoro-8-(((2R,7aS)-2-fluorotetrahydro-1H-pyrrolizin-7a(5H)-yl)methoxy)-1,2,3,4,5,13,14,14a-octahydro-1,4-epiminoazepino[1′,2′:1,7]azepino[2,3,4-de]quinazolin-11-yl)-5-ethynyl-6-fluoronaphthalen-2-ol] | – | 0.26 nM | 0.07 nM | –
8 | C#Cc1c(F)ccc2cc(O)cc(-c3nc4c5c(nc(OC[C@@]67CCCN6C[C@H](F)C7)nc5c3F)N3C[C@H]5CC[C@H](N5)[C@@H]3[C@H]3CCC[C@@H]43)c12 [Example 42-P, 5-ethynyl-6-fluoro-4-((3aS,3bS,4S,7R,14bR)-12-fluoro-10-(((2R,7aS)-2-fluorotetrahydro-1H-pyrrolizin-7a(5H)-yl)methoxy)-2,3,3a,3b,4,5,6,7,8,14b-decahydro-1H-8a,9,11,14,15-pentaaza-4,7-methanocyclopenta[d]naphtho[1,8-ab]heptalen-13-yl)naphthalen-2-ol] | – | 1.7 nM | 0.15 nM | –
9 | C#Cc1c(F)ccc2cc(OC(=O)N(C)C)cc(-c3nc4c5c(nc(OC[C@@]67CCCN6C[C@H](F)C7)nc5c3F)N3C[C@H]5CC[C@@H]([C@@H]3[C@@H](C)C4)N5Cc3oc(=O)oc3C)c12 [Example 51, 5-ethynyl-6-fluoro-4-((5S,5aS,6S,9R)-1-fluoro-12-(((2R,7aS)-2-fluorotetrahydro-1H-pyrrolizin-7a(5H)-yl)methoxy)-5-methyl-14-((5-methyl-2-oxo-1,3-dioxol-4-yl)methyl)-4,5,5a,6,7,8,9,10-octahydro-3,10a,11,13,14-pentaaza-6,9-methanonaphtho[1,8-ab]heptalen-2-yl)naphthalen-2-yl dimethylcarbamate] | – | – | – | IC50 (GDP-loaded KRAS G12D): > 100 nM; EC50 (GP2D (KRAS G12D) cells; GP2d, 96 h, read-out: G12D 2D EC50 (nM)): 34 nM
10 | C#Cc1c(F)ccc2cc(O)cc(-c3nc4c5c(nc(OC[C@]6(C)CN(C)CC[C@@H]6C(F)F)nc5c3F)N3C[C@H]5CC[C@H](N5)[C@H]3CCC4)c12 [Example 74-P, 4-((6aR,7S,10R)-13-(((3S,4S)-4-(difluoromethyl)-1,3-dimethylpiperidin-3-yl)methoxy)-1-fluoro-5,6,6a,7,8,9,10,11-octahydro-4H-3,11a,12,14,15-pentaaza-7,10-methanocyclohepta[4,5]cycloocta[1,2,3-de]naphthalen-2-yl)-5-ethynyl-6-fluoronaphthalen-2-ol] | – | 0.15 nM | 0.03 nM | –
11 | [2H]C([2H])([2H])N1CC[C@H](C(F)F)[C@](C)(C([2H])([2H])Oc2nc3c4c(nc(-c5cc(O)cc6ccc(F)c(C#C)c56)c(F)c4n2)CCC[C@@H]2[C@@H]4CC[C@H](CN32)N4)C1 [Example 75-P, 4-((6aR,7S,10R)-13-(((3S,4S)-4-(difluoromethyl)-3-methyl-1-(methyl-d3)piperidin-3-yl)methoxy-d2)-1-fluoro-5,6,6a,7,8,9,10,11-octahydro-4H-3,11a,12,14,15-pentaaza-7,10-methanocyclohepta[4,5]cycloocta[1,2,3-de]naphthalen-2-yl)-5-ethynyl-6-fluoronaphthalen-2-ol] | – | 0.1 nM | 0.03 nM | –
12 | C#Cc1c(F)ccc2cc(N)cc(-c3nc4c5c(nc(OC[C@]6(C)CN(C)CC[C@@H]6C(F)F)nc5c3F)N3C[C@H]5CC[C@H](N5)[C@H]3CCC4)c12 [Example 76-P, 4-((6aR,7S,10R)-13-(((3S,4S)-4-(difluoromethyl)-1,3-dimethylpiperidin-3-yl)methoxy)-1-fluoro-5,6,6a,7,8,9,10,11-octahydro-4H-3,11a,12,14,15-pentaaza-7,10-methanocyclohepta[4,5]cycloocta[1,2,3-de]naphthalen-2-yl)-5-ethynyl-6-fluoronaphthalen-2-amine] | – | 0.27 nM | 0.07 nM | –
